Data published in patent US9807999B2, “Formulations” (priority 2010, dated 2017).

How the values were obtained:
[1] = Solubility of active ingredients in solvents of the invention (equilibrated 4 weeks, supernatant analysed by gas chromatography)
Experimental: The resultant sample was mixed with a Whirlimixer™ and was then stored at 25° C. […] This procedure was repeated until the sample had equilibrated for 4 weeks following the final addition of either active ingredient or solvent.

[2] = Solubility of pesticides in propylene glycol benzoate compared with commonly used solvents; conditions: comparison in words; 20° C.
[3] = solvent propylene glycol benzoate (compound 1), 25° C., equilibrated 4 weeks
[4] = solvent butylene glycol benzoate (compound 2), 25° C., equilibrated 4 weeks

| SMILES | Solubility in propylene glycol benzoate at 25° C. [1, 3] [% w/w] | Solubility in butylene glycol benzoate at 25° C. [1, 4] [% w/w] | Solubility in propylene glycol benzoate relative to a series of commonly used solvents [2] | Solubility in butylene glycol benzoate at 25° C. ([1]; 4 weeks) [% w/w] | Solubility in propylene glycol benzoate at 25° C. ([1]; 4 weeks) [% w/w] |
| --- | --- | --- | --- | --- | --- |
| COCCOCc1nc(C(F)(F)F)ccc1C(=O)C1=C(O)C2CCC(C2)C1=O (centres unmarked) [4-Hydroxy-3-[2-(2-methoxyethoxymethyl)-6-trifluoromethylpyridine-3-carbonyl]-bicyclo[3.2.1]oct-3-en-2-one] | 27.4 |  |  |  |  |
| CO/C=C(/C(=O)OC)c1ccccc1Oc1cc(Oc2ccccc2C#N)ncn1 [Azoxystrobin] | 5.5 | 8.1 | higher |  |  |
| N#Cc1c(Cl)c(Cl)c(Cl)c(C#N)c1Cl [Chlorothalonil] | 1.32 |  | lower |  |  |
| CC(C1CC1)C(O)(Cn1cncn1)c1ccc(Cl)cc1 (centres unmarked) [Cyproconazole] |  |  |  | 6.9 | 4.5 |
| CC(C)C1C2CCC1c1c(NC(=O)c3cn(C)nc3C(F)F)cccc12 (centres unmarked) [Isopyrazam] | 12.7 | 12.4 | higher |  |  |
